The structures appear in SMILES notation. Calls of active or inactive are those of the source.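 Rule for the calls: active = compounds giving half or more protection of infected cells from virus-caused growth loss, again on retest; inactive = the rest.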 Where a SMILES comes first, the peptide text is derived from it. [ ]: non-standard residue; d: D form. The star is where a group is joined. Fmoc = O=C(OCC1c2ccccc2-c2ccccc21)*; Cbz = O=C(OCc1ccccc1)*; Boc = CC(C)(C)OC(=O)*; Aib = CC(C)(N)C(=O)O; OBn = c1ccc(CO*)cc1; OtBu = CC(C)(C)O* Bounds are passed on as bounds.

The experiment relates to CEM cells HIV-1 protection, formazan growth assay. Description: NCI AIDS Antiviral Assay. Conditions: for IC50: measured here: growth of uninfected CEM cells. In outline: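 Soluble formazan readout of cell growth; CEM cells ± HIV-1; 5 drug concs. ≥50% protection → retest; ≥50% again = moderately active; reproducible 100% = confirmed active.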

As a reminder, the EC50 is the midpoint of the concentration-response curve. By IC50 is commonly meant the concentration that inhibits the measured activity by half. Read a low IC50 as inhibition by little substance. Consider `O=C(O)/C=C/SCCC(=O)O`, for which the EC50 is over 1410 µM and the IC50 was over 1410 µM.

In the case of `O=c1c(Cl)c2cc3c(cc2c2ccccc12)nc1cccnc1n3C1CCCCC1`, the EC50 is over 39.8 µM and the IC50 is over 39.8 µM.

As for `CCCOc1csc([C@H]2CCC3[C@@H]4CC=C5C[C@@H](OC(=O)CCC(=O)O)CC[C@]5(C)C4CC[C@@]32C)n1` (some centres undefined), the EC50 is over 47.9 µM and the IC50 worked out at 18.2 µM.

With `O=C(NNC(=O)c1ccccc1O)c1ccc(O)cc1`, the EC50 was over 200 µM and the IC50 turned out to be 14.5 µM.

As to `CCN(CC)CCOc1ccc2c(c1)C(=O)c1cc(OCCN(CC)CC)ccc1-2`, the EC50 was over 200 µM and the IC50 amounted to 12.3 µM.

As for `NC(Cc1ccc(S(=O)(=O)O)cc1)C(=O)NC(Cc1ccc(S(=O)(=O)O)cc1)C(=O)O` (centres undefined), the EC50 is over 200 µM and the IC50 is over 200 µM.

On to `CCN(CC)CCCNc1nnc2c(=O)n(C)c(=O)n(C)c2n1`, for which the EC50 is over 200 µM and the 50% inhibitory concentration (IC50) is over 200 µM.

`O=C1CCCCCCCCCCCC(=O)OCCO1`: the EC50 is over 132 µM and the IC50 was over 132 µM.

Take `CC12CC1C(c1cccc([N+](=O)[O-])c1)(c1cccc([N+](=O)[O-])c1)N=N2` (centres undefined): the EC50 is over 200 µM and the half-maximal inhibitory concentration (IC50) turned out to be 13.5 µM.

With `NC(CCSSCCC(N)C(=O)NCC(=O)O)C(=O)NCC(=O)O` (centres undefined), the EC50 was over 64.6 µM and the IC50 was over 64.6 µM.

Take `O=C1c2ccccc2C(=O)N1CCN(CCN1C(=O)c2ccccc2C1=O)Cc1ccccc1`: the result was inactive.

Turning to `COc1c(Sc2ccccc2)cc(Sc2ccccc2)c2cccnc12`, the outcome was inactive.

Take `Nc1nc(CC2(O)CCCCC2)cc(-c2ccccc2)n1`: the EC50 is over 1.95 µM and the IC50 was over 1.95 µM.

On to `CC1(C)CC2(C)ON=C(c3ccccc3)N2c2ccccc2N1` (centres undefined), for which the EC50 was 57.5 µM and the IC50 worked out at 105 µM.

With `CN1N=CSC12C(=O)N(c1ccccc1)C(=O)N2c1ccccc1` (centres undefined), the result was inactive.

On to `CSCc1nc2ccccc2c(C)[n+]1[O-]`, for which the EC50 was over 200 µM and the IC50 is over 200 µM.

For `CC(C)CC(NC(=O)C(Cc1ccccc1)NC(=O)C1CCCN1C(=O)OCc1ccccc1)C(=O)OC(C)(C)C` (stereo not drawn) (Cbz-Pro-Phe-Leu-OtBu; configuration not given here), the EC50 is over 6.61 µM and the IC50 was over 6.61 µM.

Turning to `CC1CC2=C(C(=O)O1)C(c1ccccc1)Nc1ccccc1N2` (centres undefined), the EC50 was over 427 µM and the IC50 is 81.3 µM.

As to `CC(C)=CC(C(O)c1ccccc1)S(=O)(=O)c1nccn1C` (centres undefined), the EC50 was over 407 µM and the IC50 is over 407 µM.

On to `CC(C(=O)O)c1ccc2oc(-c3ccc(Cl)cc3)nc2c1` (centres undefined), for which the EC50 was over 200 µM and the half-inhibitory concentration (IC50) was over 200 µM.

For `C[C@]12CCC(=O)C(O)=C1CCC2=O`, the result was inactive.

`CC1=C(/C=C/C(C)=C/C=C/C(C)=C/C=C/C=C(C)/C=C/C=C(C)/C=C/C2=C(C)C(=O)C(O)CC2(C)C)C(C)(C)CC(O)C1=O` (centres undefined): the EC50 is over 43.7 µM and the IC50 was over 43.7 µM.

`COC(=O)C12CCC(C)(C)CC1C1=CCC3C4(C)CC(O)C(O)C(C)(C(=O)OC)C4CCC3(C)C1(CO)CC2` (centres undefined): the result was inactive.

As to `[N-]=[N+]=Nc1cc(=O)[nH]c2ccccc12`, the EC50 was over 200 µM and the IC50 was over 200 µM.

Turning to `C1CSCCSCCCSC2CCCCC2SC1` (centres undefined), the EC50 was over 22.4 µM and the IC50 was over 22.4 µM.

For the molecule `Cc1cc(S(=O)(=O)Nc2nc(N)nc(N(C)C)n2)c(SC(C(=O)O)c2ccccc2)cc1Cl` (centres undefined), the EC50 is 85.1 µM and the IC50 is over 200 µM.

As to `CC(=O)c1ccc(NC(=O)/C(=N\NC(N)=O)C(C#N)CC(C)(C)C=O)cc1` (centres undefined), the EC50 is over 490 µM and the IC50 is over 490 µM.

`CC(C)=CC(=O)O[C@@H]1CC(C)(C)CC2C3=CCC4[C@]56CC[C@](O)(OC5)C(C)(C)C6CC[C@@]4(C)C3(C)CC[C@]21C(=O)O` (some centres undefined): the EC50 is over 200 µM and the IC50 was 10.2 µM.

As for `CCOc1ccc(NC(=O)C2=C(C)NC(C)=C(C(=O)Nc3ccc(OCC)cc3)C2c2ccc(O)c(OC)c2)cc1`, the EC50 is over 17 µM and the IC50 was over 17 µM.

`O=[N+]([O-])c1cccc(-c2csc(N=Nc3c(O)[nH]c4ccccc34)n2)c1`: the EC50 was over 200 µM and the IC50 was over 200 µM.

As for `COC(=O)C(Cc1c[nH]c2ccccc12)NC(=O)C(Cc1c[nH]c2ccccc12)NC(=O)C(Cc1c[nH]c2ccccc12)NC(=O)OC(C)(C)C` (stereo not drawn) (Boc-Trp-Trp-Trp-OMe; configuration not given here), the EC50 is over 200 µM and the IC50 was found to be 29.5 µM.

As to `COc1ccc(/C(C#N)=C(/N)SCc2ccccc2Cl)cc1`, the result was inactive.

Consider `CC(C)C1=CC(=O)C(C)(C2=NC(C)(C)CO2)c2ccccc21` (centres undefined), for which the EC50 is over 437 µM and the IC50 is over 437 µM.

For the molecule `Cc1nn(-c2ccccc2)c2c1S(=O)(=O)c1ccccc1-2`, the EC50 was over 112 µM and the IC50 worked out at 69.2 µM.

Consider `Nc1ccc2c(c1)NC(=O)[C@@H]1CCCN1C2=O`, for which the EC50 is over 200 µM and the IC50 is over 200 µM.

As for `S=C1N=C(Cl)/C(=C\c2ccco2)N1`, the EC50 was over 200 µM and the IC50 is over 200 µM.

Consider `CC(C)=CCC[C@@H](C)C1=C(O)C(Nc2ccccc2Cl)=C(C)C(=O)C1=O`, for which the EC50 is over 200 µM and the IC50 was 6.31 µM.

On to `N#CNC(=NCc1ccccc1)N(Cc1ccccc1)Cc1ccccc1`, for which the EC50 is over 14.8 µM and the half-inhibitory concentration (IC50) is over 14.8 µM.

On to `NC1(CCNC(=O)c2ccccc2)CCN(C(=O)c2ccccc2)CC1`, for which the EC50 is over 200 µM and the IC50 is 145 µM.

In the case of `COc1cc(O)c(/C=N/N=C(\N)NO)c(OC)c1`, the EC50 is over 200 µM and the IC50 came out at 44.7 µM.

As to `Cc1cc(C)nc(NS(=O)(=O)c2ccc(Nc3c4ccccc4nc4c(C(=O)Nc5ccc(S(=O)(=O)N=C(N)N)cc5)ccc(Cl)c34)cc2)n1`, the EC50 was over 93.3 µM and the IC50 turned out to be 69.2 µM.

On to `COc1ccc(CC(=O)C2C(=O)N(C)c3ccccc32)cc1OC` (centres undefined), for which the EC50 was over 200 µM and the IC50 was found to be 44.7 µM.

Take `CO[C@H]1O[C@@H]2OC3(C)CCC4[C@H](C)CCC([C@H]1C)[C@]42OO3` (some centres undefined): the EC50 was over 200 µM and the IC50 was found to be 112 µM.

Consider `Cn1ccnc1.Cn1ccnc1.[O-][Cl+3]([O-])([O-])[O-].[Pt+2].c1ccc(-c2ccccn2)nc1`, for which the EC50 is over 200 µM and the IC50 is over 200 µM.

Consider `CCOC(=O)N1C2c3ccccc3C(c3ccccc32)N1C(=O)OCC`, for which the EC50 is over 56.2 µM and the IC50 was over 56.2 µM.

For the molecule `CC(NC(=O)C(C)(C)NC(=O)C(CC(=O)OCc1ccccc1)NC(=O)OCc1ccccc1)C(N)=O` (centres undefined) (Cbz-Asp(OBn)-[Aib]-Ala-NH2; configuration not given here), the EC50 was over 200 µM and the IC50 is over 200 µM.

Take `COc1c2occc2c([N+](=O)[O-])c2ccc(=O)oc12`: the EC50 is over 30.9 µM and the IC50 was determined as 26.3 µM.

As to `CN(C)CCC(=O)/C=C\c1ccccc1`, the result was inactive.

For the molecule `O=C(CC(C(=O)c1ccco1)c1ccsc1)c1ccco1` (centres undefined), the EC50 was over 200 µM and the IC50 was 107 µM.

Regarding `Cc1ccc(SCC(CF)OC(C)n2cnc3c(Cl)nc(N)nc32)cc1` (centres undefined), the EC50 was over 200 µM and the IC50 is 38 µM.

As for `CNc1nncc2[nH]cnc12`, the EC50 is over 200 µM and the IC50 is over 200 µM.

With `CCOC(=O)NC1=C(N2CC2)C(=O)C(NC(=O)OCC)=C(N2CC2)C1=O`, the EC50 is over 24.5 µM and the IC50 stood at 6.46 µM.

Take `OCc1nnn(-c2ccccc2)c1CO`: the EC50 is over 200 µM and the IC50 is over 200 µM.

As for `O=c1[nH][nH]c(=O)n1Cc1ccccc1Cn1c(=O)[nH][nH]c1=O`, the EC50 is over 100 µM and the IC50 was over 100 µM.

Consider `COc1ccc2nc3cc(Cl)ccc3c(NCCC[N+](C)(C)CCCCCCCCCCCCCCCC[N+](C)(C)CCCNc3c4ccc(Cl)cc4nc4ccc(OC)cc34)c2c1`, for which the outcome was inactive.

With `CC(C)=CCN1CC(C)C(=O)Nc2ccccc21` (centres undefined), the concentration giving a half-maximal response (EC50) was 19.5 µM and the IC50 was determined as 117 µM.

On to `Nc1nc(N)c2nc(-c3ccco3)cnc2n1`, for which the outcome was inactive.

`CCOc1ccc(-c2nc(-c3oc4ccccc4c(=O)c3OC(C)=O)cs2)cc1`: the EC50 was over 200 µM and the IC50 was 112 µM.

For `Nc1nc(=S)c2c(ncn2CCO)[nH]1`, the EC50 is over 324 µM and the IC50 was 126 µM.

For the molecule `C/C(CN1C(=O)c2ccccc2C1=O)=N\NS(C)(=O)=O`, the EC50 is over 851 µM and the IC50 was 589 µM.

Consider `O=C(N/N=C\c1cccs1)c1ccncc1`, for which the EC50 is over 200 µM and the IC50 was over 200 µM.

As for `COc1ccc(-c2nc(N)n(C)c2SSc2c(-c3ccc(OC)cc3)nc(N)n2C)cc1`, the EC50 was over 45.7 µM and the IC50 is 3.98 µM.

For the molecule `CC(C)(C)OC(=O)NCCCCC(NC(=O)C(Cc1c[nH]c2ccccc12)NC(=O)OCC1c2ccccc2-c2ccccc21)C(=O)O` (centres undefined) (Fmoc-Trp-Lys(Boc)-OH; configuration not given here), the EC50 is over 200 µM and the IC50 was 102 µM.

As for `O=C(CN(Cc1ccccc1)Cc1ccccc1)N1CCc2c([nH]c3ccccc23)C1c1cccnc1` (centres undefined), the EC50 is over 5.62 µM and the IC50 is over 5.62 µM.

Regarding `COc1cc2cccc(N=Cc3cccc(OC)c3OC(C)C)c2cc1OC`, the EC50 is over 13.2 µM and the IC50 is over 13.2 µM.

`CCN(CC)P(=O)(c1ccc2c(c1)OCCOCCOCCOCCO2)N(CC)CC`: the EC50 was over 200 µM and the IC50 was over 200 µM.

With `Nc1[nH]n(-c2ccccc2)c(=O)c1/C=N/C(=S)NC1CCCCC1`, the EC50 is over 100 µM and the IC50 is over 100 µM.

With `O=C1C/C(=C\O)C(=O)c2ccccc2N1`, the EC50 is 0.186 µM and the IC50 was over 200 µM.

In the case of `COC(=O)C(=O)C1CSC2=C(CS(=O)(=O)c3ccccc32)C1=O` (centres undefined), the EC50 was over 200 µM and the IC50 was over 200 µM.

The record behind these values is PubChem BioAssay AID179 (DTP/NCI, 2004).
